Source: PubChem BioAssay (NCI)
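GI50 marks 50% less growth. At the TGI there is no net growth.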

What was measured:
Test in all cases: DTP human tumour cell line panel, 384-well format
NCI-H522 lung = test system: NCI-H522 lung
ACHN renal = test system: ACHN renal
KM12 colon = test system: KM12 colon
NCI-H322M lung = test system: NCI-H322M lung
SNB-19 CNS = test system: SNB-19 CNS
MDA-MB-435 melanoma = test system: MDA-MB-435 melanoma
BT-549 breast = test system: BT-549 breast
OVCAR-4 ovarian = test system: OVCAR-4 ovarian
LOX IMVI melanoma = test system: LOX IMVI melanoma
SF-295 CNS = test system: SF-295 CNS
SNB-75 CNS = test system: SNB-75 CNS
SK-MEL-5 melanoma = test system: SK-MEL-5 melanoma
UACC-257 melanoma = test system: UACC-257 melanoma
A498 renal = test system: A498 renal
SK-MEL-28 melanoma = test system: SK-MEL-28 melanoma
SR leukemia = test system: SR leukemia
HOP-92 NSCLC = test system: HOP-92 NSCLC
NCI-H226 lung = test system: NCI-H226 lung
OVCAR-3 ovarian = test system: OVCAR-3 ovarian
HCT-116 colon = test system: HCT-116 colon
HL-60(TB) leukemia = test system: HL-60(TB) leukemia
SF-539 CNS = test system: SF-539 CNS
DU-145 prostate = test system: DU-145 prostate
COLO 205 colon = test system: COLO 205 colon
K-562 leukemia = test system: K-562 leukemia
SK-MEL-2 melanoma = test system: SK-MEL-2 melanoma
HCC-2998 colon = test system: HCC-2998 colon
U251 glioblastoma = test system: U251 glioblastoma
T-47D breast = test system: T-47D breast
NCI-H23 lung = test system: NCI-H23 lung
SF-268 CNS = test system: SF-268 CNS
EKVX NSCLC = test system: EKVX NSCLC
NCI-H460 NSCLC = test system: NCI-H460 NSCLC
IGROV1 ovarian = test system: IGROV1 ovarian
OVCAR-5 ovarian = test system: OVCAR-5 ovarian
CCRF-CEM leukemia = test system: CCRF-CEM leukemia
HOP-62 NSCLC = test system: HOP-62 NSCLC
MDA-MB-231 breast = test system: MDA-MB-231 breast
PC-3 prostate = test system: PC-3 prostate
RPMI-8226 leukemia = test system: RPMI-8226 leukemia
CAKI-1 renal = test system: CAKI-1 renal
A549 NSCLC = test system: A549 NSCLC
SW-620 colon = test system: SW-620 colon
UO-31 renal = test system: UO-31 renal
MOLT-4 leukemia = test system: MOLT-4 leukemia
SK-OV-3 ovarian = test system: SK-OV-3 ovarian
HT29 colon = test system: HT29 colon

SMILES: Cc1cc2c(C(C)C)c(O)c(O)c(C=O)c2c(O)c1-c1c(C)cc2c(C(C)C)c(O)c(O)c(C=O)c2c1O (tested in a mixture with another compound)
- GI50 (NCI-H522 lung): 1860 nM
- TGI (NCI-H522 lung): 4100 nM
- GI50 (ACHN renal): 2050 nM
- TGI (ACHN renal): 4660 nM
- GI50 (KM12 colon): 1500 nM
- TGI (KM12 colon): 3100 nM
- GI50 (NCI-H322M lung): 1670 nM
- TGI (NCI-H322M lung): 4140 nM
- GI50 (SNB-19 CNS): 1250 nM
- TGI (SNB-19 CNS): 2920 nM
- GI50 (MDA-MB-435 melanoma): 2420 nM
- TGI (MDA-MB-435 melanoma): 5170 nM
- GI50 (BT-549 breast): 1530 nM
- TGI (BT-549 breast): 2940 nM
- GI50 (OVCAR-4 ovarian): 2850 nM
- TGI (OVCAR-4 ovarian): 7520 nM
- GI50 (LOX IMVI melanoma): 1830 nM
- TGI (LOX IMVI melanoma): 3420 nM
- GI50 (SF-295 CNS): 1210 nM
- TGI (SF-295 CNS): 2710 nM
- GI50 (SNB-75 CNS): 2260 nM
- TGI (SNB-75 CNS): 4370 nM
- GI50 (SK-MEL-5 melanoma): 1760 nM
- TGI (SK-MEL-5 melanoma): 3180 nM
- GI50 (UACC-257 melanoma): 1990 nM
- TGI (UACC-257 melanoma): 3800 nM
- GI50 (A498 renal): 2410 nM
- TGI (A498 renal): 9870 nM
- GI50 (SK-MEL-28 melanoma): 1590 nM
- TGI (SK-MEL-28 melanoma): 3130 nM
- GI50 (SR leukemia): 1800 nM
- TGI (SR leukemia): 3210 nM
- GI50 (HOP-92 NSCLC): 1780 nM
- TGI (HOP-92 NSCLC): 4000 nM
- GI50 (NCI-H226 lung): 1630 nM
- TGI (NCI-H226 lung): 3030 nM
- GI50 (OVCAR-3 ovarian): 1590 nM
- TGI (OVCAR-3 ovarian): 3460 nM
- GI50 (HCT-116 colon): 1700 nM
- TGI (HCT-116 colon): 3120 nM
- GI50 (HL-60(TB) leukemia): 1690 nM
- TGI (HL-60(TB) leukemia): 3090 nM
- GI50 (SF-539 CNS): 1720 nM
- TGI (SF-539 CNS): 3180 nM
- GI50 (DU-145 prostate): 1860 nM
- TGI (DU-145 prostate): 3470 nM
- GI50 (COLO 205 colon): 3180 nM
- TGI (COLO 205 colon): 9010 nM
- GI50 (K-562 leukemia): 1400 nM
- TGI (K-562 leukemia): 2870 nM
- GI50 (SK-MEL-2 melanoma): 1970 nM
- TGI (SK-MEL-2 melanoma): 3610 nM
- GI50 (HCC-2998 colon): 2320 nM
- TGI (HCC-2998 colon): 4700 nM
- GI50 (U251 glioblastoma): 1590 nM
- TGI (U251 glioblastoma): 3020 nM
- GI50 (T-47D breast): 1700 nM
- TGI (T-47D breast): 3410 nM
- GI50 (NCI-H23 lung): 1840 nM
- TGI (NCI-H23 lung): 4060 nM
- GI50 (SF-268 CNS): 1660 nM
- TGI (SF-268 CNS): 3260 nM
- GI50 (EKVX NSCLC): 1850 nM
- TGI (EKVX NSCLC): 3970 nM
- GI50 (NCI-H460 NSCLC): 1900 nM
- TGI (NCI-H460 NSCLC): 3400 nM
- GI50 (IGROV1 ovarian): 1950 nM
- TGI (IGROV1 ovarian): 3850 nM
- GI50 (OVCAR-5 ovarian): 2290 nM
- TGI (OVCAR-5 ovarian): 4570 nM
- GI50 (CCRF-CEM leukemia): 1140 nM
- TGI (CCRF-CEM leukemia): 2380 nM
- GI50 (HOP-62 NSCLC): 2240 nM
- TGI (HOP-62 NSCLC): 3900 nM
- GI50 (MDA-MB-231 breast): 1880 nM
- TGI (MDA-MB-231 breast): 4150 nM
- GI50 (PC-3 prostate): 1670 nM
- TGI (PC-3 prostate): 3520 nM
- GI50 (RPMI-8226 leukemia): 1420 nM
- TGI (RPMI-8226 leukemia): 2730 nM
- GI50 (CAKI-1 renal): 2530 nM
- TGI (CAKI-1 renal): 5930 nM
- GI50 (A549 NSCLC): 1860 nM
- TGI (A549 NSCLC): 4500 nM
- GI50 (SW-620 colon): 2070 nM
- TGI (SW-620 colon): 3980 nM
- GI50 (UO-31 renal): 2730 nM
- TGI (UO-31 renal): 7080 nM
- GI50 (MOLT-4 leukemia): 765 nM
- TGI (MOLT-4 leukemia): 2010 nM
- GI50 (SK-OV-3 ovarian): 2580 nM
- TGI (SK-OV-3 ovarian): 6670 nM
- GI50 (HT29 colon): 2880 nM
- TGI (HT29 colon): 9040 nM
